Results: patent US20230027066A1 (Urovant Sciences GmbH, priority 2019, published 2023)

Tested on: men and women with overactive bladder
Assay: Phase 3 study of vibegron 75 mg vs placebo and tolterodine ER 4 mg, 12 weeks, efficacy (voiding and urine volume diary)
Format: in vivo, human
Conditions: for Urgency 50% responders, Active - Placebo CMH Difference / Patients with at Least 50% Reduction in Urgency Episodes, Adjusted (%) / Patients with at Least 50% Reduction in Urgency Episodes, Adjusted n / Patients with at Least 50% Reduction in Urgency Episodes, Unadjusted (%) / Patients with at Least 50% Reduction in Urgency Episodes, Unadjusted n: Dry population; for Urgency Episodes, Week 12 CFB Mean: descriptive statistics; for Micturitions: LS Mean (95% CI): Table 32, week 12
Method: Enrollment of patients included individuals with OAB Wet (those with UUI, the involuntary loss of urine accompanied by urgency) and OAB Dry (those without UUI). A total of 1,518 patients were randomized across 215 study sites into one of three groups for a 12-week treatment period.
The study consisted of a Screening Period (1 to 5 weeks), a single-blind Run-in Period (2 weeks), a randomized double-blind Treatment Period (12 weeks), and a Follow-up Period (4 weeks).
Tolterodine ER 4 mg was the active control. […] Between the Baseline and Week 12 Visits, patients had study assessments at Week 4 and Week 8.
The Patient Voiding Diary was used by participants (via the eDiary or paper Diary) to record the frequency of daily OAB symptoms including all micturitions, urgency, incontinence, and main reason for incontinence by selecting the respective box for each symptom occurring during the course of a given day and night.
Urine volume data were collected separately by patients using the Urine Volume component of the eDiary, or the paper Urine Volume Chart. The Urine Volume Chart is a tool used in clinical practice and clinical investigation to assess voiding functions over a 24-hour period and is regarded as a useful instrument in the investigation of patients with voiding symptoms. Urine volume may be collected during any one (1) of the 7 Diary Days prior to the visit, and it should be recorded for ˜24 hours starting from the time the patient gets up for the day and continues until the time the patient gets up for the day on the next day.
For the purpose of this study, the number of micturitions was defined as the number of times a patient has voided in the toilet as indicated on the Patient Voiding Diary. Average daily micturitions were calculated using the daily entries in the Patient Voiding Diary, which was completed over the 7 days prior to each study visit. Average daily number of micturitions were calculated as the total number of micturitions that occurred on a Complete Diary Day divided by the number of Complete Diary Days in the Patient Voiding Diary. A complete diary day required confirmation by the patient in the Patient Voiding Diary that all voids and leakages had been recorded for the diary day. Baseline was defined as the average number of micturitions occurring during the last evaluable diary prior to the Baseline Visit.
The number of UUI episodes was defined as the number of times a patient had checked “urge” as the reason for accidental urine leakage. Average daily UUI episodes at each study visit were calculated in the same manner as described above for the micturition endpoint. The UUI endpoint were analyzed using only OAB Wet patients.
For the analysis of the co-primary endpoints (change from baseline in average number of daily micturitions at Week 12 and change from baseline in average number of daily urge urinary incontinence episodes at Week 12, and placebo adjustment of each), a mixed model for repeated measure (MMRM) with restricted maximum likelihood estimation was used. This model corrects for dropout and accounts for the fact that measurements taken on the same patient over time tend to be correlated by using all available information on patients within the same covariate set to derive an estimate of the treatment effect for a dropout-free population. The analysis model for each efficacy endpoint includes terms for treatment, visit, OAB Type (Wet vs Dry), Sex (Female vs Male), Region (US vs Rest of World), baseline score, and interaction of visit by treatment.
Primary inferences were drawn from treatment differences for the changes from baseline derived from the MMRM models at Week 12. As part of secondary objectives, the treatment differences for each post baseline visit were also derived using the same MMRM model. […]

[1] = No prior anticholinergic use during the prior 12 months
[2] = No prior mirabegron use during the prior 12 months
[3] = Overall, events of Events/Censored
[4] = Prior anticholinergic use during the prior 12 months
[5] = Prior mirabegron use during the prior 12 months
[6] = Week 2, events of Events/Censored
[7] = Week 4, events of Events/Censored

Cc1ccc(O)c([C@H](CCN(C(C)C)C(C)C)c2ccccc2)c1 [Tolterodine ER, tolterodine, reference compound]
Urgency 50% responders, Active - Placebo CMH Difference (baseline to Week 2): 2.8
Patients with at Least 50% Reduction in Urgency Episodes, Adjusted (%) (baseline to Week 4): 20.6%
Patients with at Least 50% Reduction in Urgency Episodes, Adjusted n (baseline to Week 4): 20
Patients with at Least 50% Reduction in Urgency Episodes, Unadjusted (%) (baseline to Week 4): 25.5%
Patients with at Least 50% Reduction in Urgency Episodes, Unadjusted n (baseline to Week 4): 25
Urgency 50% responders, Active - Placebo CMH Difference (baseline to Week 4): 3.5
Patients with at Least 50% Reduction in Urgency Episodes, Adjusted (%) (baseline to Week 8): 28.5%
Patients with at Least 50% Reduction in Urgency Episodes, Adjusted n (baseline to Week 8): 28
Patients with at Least 50% Reduction in Urgency Episodes, Unadjusted (%) (baseline to Week 8): 30.6%
Patients with at Least 50% Reduction in Urgency Episodes, Unadjusted n (baseline to Week 8): 30
Urgency 50% responders, Active - Placebo CMH Difference (baseline to Week 8): 8.7
Patients with at Least 50% Reduction in Urgency Episodes, Adjusted (%) (baseline to Week 12): 29.0%
Patients with at Least 50% Reduction in Urgency Episodes, Adjusted n (baseline to Week 12): 28
Patients with at Least 50% Reduction in Urgency Episodes, Unadjusted (%) (baseline to Week 12): 32.7%
Patients with at Least 50% Reduction in Urgency Episodes, Unadjusted n (baseline to Week 12): 32
Urgency 50% responders, Active - Placebo CMH Difference (baseline to Week 12): 5.8
Urgency Episodes, Week 12 CFB Mean (Males with BPH): −3.29
Urgency Episodes, Week 12 CFB Mean (Males without BPH): −2.32
Urgency Episodes, Week 12 CFB Mean (No Prior ACH Use in last 12 Mo.): −2.62
Urgency Episodes, Week 12 CFB Mean (No Prior B3 Agonist Use in last 12 Mo.): −2.56
Micturitions, 12-week change [1]: −1.8
UUI Episodes, 12-week change [1]: −1.9
Micturitions, 12-week change [2]: −1.8
UUI Episodes, 12-week change [2]: −1.8
Overall Time to First 50% Decrease in Urgency Episodes, 25th Percentile (Overall): 4.3 weeks
Overall Time to First 50% Decrease in Urgency Episodes, 50th Percentile (Overall): 12.6 weeks
Overall Time to First 50% Decrease in Urgency Episodes, Median (95% CI) (Overall): 12.6 (12.3 to 12.9) weeks
Overall Time to First 100% Decrease in UUI Episodes, 25th Percentile (Overall): 12.1 weeks
Overall Time to First 100% Decrease in UUI Episodes, 75th Percentile (Overall): 16.0 weeks
Overall Time to First 100% Decrease in UUI Episodes, Median (95% CI) (Overall): 13.1 (12.7 to 16.0) weeks
Urgency Episodes, Week 12 CFB Mean (Overall): −2.57
First 50% Decrease in Urgency Episodes, Events [3]: 187/230
First 100% Decrease in UUI Episodes, Events [3]: 93/226
Urgency Episodes, Week 12 CFB Mean (Prior ACH Use in last 12 Mo.): −2.23
Urgency Episodes, Week 12 CFB Mean (Prior B3 Agonist Use in last 12 Mo.): −2.72
Micturitions, 12-week change [4]: −1.52
UUI Episodes, 12-week change [4]: −0.98
Micturitions, 12-week change [5]: −1.30
UUI Episodes, 12-week change [5]: −0.65
Micturitions: LS Mean (95% CI) (Age <65 years): −0.2 (−0.6 to 0.2)
Micturitions: LS Mean (95% CI) (Age ≥65 years): −0.3 (−0.8 to 0.2)
Micturitions: LS Mean (95% CI) (Age ≥75 years (posthoc analysis)): −0.4 (−1.4 to 0.6)
Micturitions: LS Mean (95% CI) (Females): −0.3 (−0.7 to 0.0)
Micturitions: LS Mean (95% CI) (Males): 0.1 (−0.7 to 0.9)
Micturitions: LS Mean (95% CI) (Non-White): −0.1 (−0.8 to 0.6)
Micturitions: LS Mean (95% CI) (OAB Type: Dry): −0.3 (−1.0 to 0.3)
Micturitions: LS Mean (95% CI) (OAB Type: Wet): −0.3 (−0.6 to 0.1)
Micturitions: LS Mean (95% CI) (Overall): −0.3 (−0.6 to 0.1)
Micturitions: LS Mean (95% CI) (Region: Non-US): 0.4 (−0.6 to 1.4)
Micturitions: LS Mean (95% CI) (Region: US): −0.3 (−0.7 to 0.0)
Micturitions: LS Mean (95% CI) (White): −0.3 (−0.7 to 0.0)
Average Daily Number of Total Incontinence, Mean (SD) (Week 2): 2.75 (2.743)
Average daily number of urgency episodes, Mean (SD) (Week 2): 6.30 (3.989)
Average volume voided per micturition, Active - Placebo LS Mean Difference (Week 2): 10.2 mL
Change from Baseline in Average Daily Number of Total Incontinence, LS Mean (SE) (Week 2): −1.3 (0.15)
Change from baseline in average daily number of urgency episodes, LS Mean (Week 2): −1.5
Change from baseline in average volume voided per micturition, LS Mean (SE) (Week 2): 12.5 (3.20) mL
Estimated Incidence of Subjects with 50% Decrease from Baseline (urgency episodes) (Week 2): 18.0
Estimated Incidence of Subjects with 100% Decrease from Baseline (UUI episodes) (Week 2): 5.6
Total Incontinence, Active - Placebo LS Mean Difference (SE) (Week 2): −0.5 (0.15)
Urgency episodes, Active - Placebo LS Mean Difference (Week 2): −0.6
First 50% Reduction in Urgency Episodes, Events [6]: 75/342
First 100% Reduction in UUI Episodes, Events [6]: 18/301
Average volume voided per micturition, Week 2 Mean (SD) (Week 2, vibegron 75 mg, tolterodine ER 4 mg): 156.7 (71.23) mL
Average Daily Number of Total Incontinence, Mean (SD) (Week 4): 2.54 (2.784)
Average daily number of urgency episodes, Mean (SD) (Week 4): 6.00 (4.097)
Average volume voided per micturition, Active - Placebo LS Mean Difference (Week 4): 8.9 mL
Average volume voided per micturition, Week 4 Mean (SD) (Week 4): 160.2 (72.76) mL
Change from Baseline in Average Daily Number of Total Incontinence, LS Mean (SE) (Week 4): −1.6 (0.15)
Change from baseline in average daily number of urgency episodes, LS Mean (Week 4): −1.8
Change from baseline in average volume voided per micturition, LS Mean (SE) (Week 4): 13.3 (3.39) mL
Estimated Incidence of Subjects with 50% Decrease from Baseline (urgency episodes) (Week 4): 19.4
Estimated Incidence of Subjects with 100% Decrease from Baseline (UUI episodes) (Week 4): 7.6
Total Incontinence, Active - Placebo LS Mean Difference (SE) (Week 4): −0.5 (0.15)
Urgency episodes, Active - Placebo LS Mean Difference (Week 4): −0.7
First 50% Reduction in Urgency Episodes, Events [7]: 81/336
First 100% Reduction in UUI Episodes, Events [7]: 24/295
Average Daily Number of Total Incontinence, Mean (SD) (Week 8): 2.20 (2.673)
